# Measured values from patent US11357850B2, “Methods for treating breast cancer using INOS-inhibitory compositions” (The Methodist Hospital, priority 2014, dated 2022).
# Columns and labels:
# MDA-MB-468 = experiment: PD-L1 expression in TNBC cell line; format: cell-based, human
# SUM159 xenografts = SUM159 xenografts treated with L-NMMA, docetaxel, combination; format: in vivo, mice
# Method: (§1) Animal Studies. Female SCID Beige mice (4-5 weeks old) (Harlan Laboratories, Houston, Tex., USA) were housed under standard laboratory conditions (22° C.; 12 hrs/12 hrs light/dark cycle and free access to food and water). Either MDA-MB-231 or SUM159 cells (3×10^6) were injected in the right mammary fat pad. Once the tumors reached 150-200 mm^3, the mice were randomized into different groups as follows (n=10/group): 1) Vehicle (saline, i.p.), 2) L-NMMA (either 80 mg/kg or 200 mg/kg, i.p., daily), 3) Docetaxel (20 mg/kg), 4) Combo (L-NMMA and docetaxel).
# (§2) Self-renewal and tumor-initiating capacity was determined by MSFE and limiting-dilution assays, respectively, in single cells isolated from tumor tissue. Briefly, breast tumor tissue was minced, digested in DMEM:F12 medium with 100 U/mL of collagenase type 3 (Worthington, Lakewood, N.J., USA) and 0.8 U/mL of dispase (Gibco, Carlsbad, Calif., USA) at 37° C. for 45 min. MSFE was assayed in isolated single cells as stated above. The limiting dilution assay (LDA) was performed injecting either […] isolated cells from tumor tissue in the mammary fat pad of SCID Beige mice (n=12/group). Flow cytometric analysis of CD44^+/CD24^−/low cell population was assayed using published methods.
# To answer this question, daily injections of 80 mg/kg L-NMMA were first given to SUM159 xenograft-bearing mice alone or in combination with docetaxel (20 mg/kg). […] The inventor next analyzed the impact on CSC self-renewal by the MSFE assay.
# SUM159 [1] = experiment: Cell proliferation assay (WST-1), iNOS inhibitors; format: cell-based, human; details: highest concentration (4 mM), 96 hrs
# Method: (§3) Cell Culture. Mesenchymal-like triple negative breast cancer cell lines, MDA-MB-231 and SUM159, were purchased from American Type Culture Collection and Asterand, respectively. […] Mammosphere forming efficiency (MSFE), cell proliferation and migration assays are detailed below. Cell culture and mammosphere forming efficiency assay. […] For mammosphere-forming efficiency (MSFE) assay, 2,000 (SUM159) and 5,000 (MDA-MB-231) cells/well were cultured in 0.5% methylcellulose (MethoCult H4100, StemCell Technologies) and MammoCult basal medium supplemented with 10% MammoCult proliferation supplement, 4 μg/mL heparin and 0.48 μg/mL hydrocortisone (StemCell Technologies, Vancouver, BC, CANADA). […] Primary MSFE was evaluated dividing mammosphere number by cell number. After trypsinization of primary MS, single cells were grown in 0.5% methylcellulose and mammosphere medium (as described above) in absence of treatment. Secondary MS were scanned, counted and secondary MSFE were assessed. For the mouse model of lung metastasis, MDA-MB-231 cells were transfected with a luciferase/GFP-based dual-reporter plasmid and stable clones (MDA-MB-231 L/G) selected with 1 mg/mL blasticidin (InvivoGen, San Diego, Calif., USA). […] Proliferation rate was determined by adding premixed WST-1 reagent (Clontech). After incubation at 37° C. for 3 hrs, absorbance was read at 450 nm (reference wavelength 690 nm).
# MDA-MB-231 [2] = experiment: Cell proliferation assay (WST-1), iNOS inhibitors; format: cell-based, human; details: highest concentration (4 mM), 96 hrs
# Method: as §3
# MDA-MB-231 xenografts [3] = experiment: MDA-MB-231 xenografts treated with L-NMMA, docetaxel, combination; format: in vivo, mice
# Method: as §1, §2
# The role of L-NMMA was then investigated, either alone or in combination with docetaxel in a different TNBC mouse model. Docetaxel (20 mg/kg at days 0 and 21) and 200 mg/kg L-NMMA (daily) were given to MDA-MB-231 xenograft-bearing mice for 31 days.
# [4] = LC-MS/MS quantification of methylarginine in plasma and tumor tissue; format: in vivo, mice
# Method: Metabolite profiling by liquid chromatography-tandem mass spectrometry (LC-MS/MS). MDA-MB-231 and SUM159 xenograft tissue from animal studies (L-NMMA given daily) as well as plasma samples were prepared as previously described. L-NMMA (200 mg/kg) was orally administered by gavage to female SCID Beige mice (n=5). Blood was drawn before (baseline, 0 hrs) and after L-NMMA administration (0.5, 2, 12, 24 hrs). LC-MS/MS platform used for metabolite profiling was previously described. Ratiometric quantification of methylarginine (L-NMMA) and citrulline was determined as ion abundance levels in plasma and tumor tissue.
# HCC-70 = experiment: PD-L1 expression in TNBC cell line; format: cell-based, human
# iNOS = iNOS (Homo sapiens, UniProt P35228); experiment: LC-MS/MS quantification of citrulline in xenograft tissue; format: in vivo, mice; details: SUM159 xenograft tissue, 24 hrs after completion of treatment
# Method: Ratiometric quantification of citrulline SUM159 xenograft tissue LC-MS/MS (Student's t-test). […] Results were normalized to vehicle. Data are presented as mean±SEM. ****p<0.0001, ***p<0.001, **p<0.01, *p<0.05; one-way ANOVA and Bonferroni's post-hoc test;
# Metabolite profiling by liquid chromatography-tandem mass spectrometry (LC-MS/MS). MDA-MB-231 and SUM159 xenograft tissue from animal studies (L-NMMA given daily) as well as plasma samples were prepared as previously described. […] LC-MS/MS platform used for metabolite profiling was previously described. Ratiometric quantification of methylarginine (L-NMMA) and citrulline was determined as ion abundance levels in plasma and tumor tissue.
# [5] = cited from earlier work
# [6] = cited from earlier work; remark: listed apart in the source
# SUM159 [7] = experiment: Cell migration, wound healing assay; format: cell-based, human; details: 96 hrs treatment, wound healing 12 hrs
# Method: (§4) FIG. 18A and FIG. 18B show the migration of MDA-MB-231 and SUM159 cells was assessed by “wound healing” assay. Briefly, 3×10^5 cells were plated in a 6-well plate until confluence in growth medium. […] A “wound” was then created in the cell monolayer. Images were taken at 0 and 12 hrs. Wound-healing capacity was determined with the software Image J. Data were replicated in three independent experiments. Results were normalized to vehicle;
# (§5) Cell migration capacity. Cell migration was determined with a “wound healing assay.” Briefly, 3×10^5 cells/well were grown in 6-well plates until confluence. […] To avoid an impact on cell proliferation, low serum medium was changed by regular growth medium in presence of inhibitors for 24 hrs (96 hrs total). A “wound” was then created in the cell monolayer with a 100-4, pipette tip. Images were taken at 0 hrs, and cells were allowed to heal the wound for 12 hrs. Wound-healing capacity was determined with the software Image J. Data were replicated in three independent experiments.
# MDA-MB-231 [8] = experiment: Cell migration, wound healing assay; format: cell-based, human; details: 96 hrs treatment, wound healing 12 hrs
# Method: as §4, §5
# SUM159 cells = experiment: Nitric oxide production (nitrate/nitrite fluorometric assay); format: cell-based, human; details: nitrate+nitrite in supernatant, up to 24 hrs
# Source text: Nitric oxide production in SUM159 cells. […] Aliquots of cell culture supernatant were taken at 0, 0.5, 2, 6 and 24 hrs for nitrate+nitrite (total nitric oxide) production with the nitrate/nitrite fluorometric assay kit (Cayman Chemical) following manufacturer's instructions.
# EMT-6 cells = details: mouse, in vivo; cited from earlier work
# MDA-MB-231 xenografts [9] = experiment: Lung metastases-preventing study, MDA-MB-231 L/G xenografts; format: in vivo, mice
# Method: For the lung metastases-preventing study, MDA-MB-231 L/G cells were implanted as described above. The mice were randomized and treatments started 48 hrs after cell injection (n=5/group): 1) Vehicle (saline, i.p.), 2) L-NAME (80 mg/kg, i.p., daily for 35 days). Previous injection of luciferin, lungs were removed and washed in cold DMEM+10% FBS+1% antibiotics/antimycotic. Then, lungs were incubated in cold DMEM media containing 50 μM luciferin for 10 min. This protocol avoids the time lapse between lung extraction and exposure to luciferin. Fluorescent cancer cells were detected with an IVIS-200 in vivo imaging system (Perkin Elmer, Inc., Santa Clara, Calif., USA).
# as §2
# iNOS inhibition reduces tumor growth, tumor initiating capacity and prevents lung metastases in mouse models of triple negative breast cancer. Based on the in vitro data, the inventor next investigated whether iNOS inhibition was able to prevent tumor initiation and metastasis of breast tumor cells in a mouse model of lung metastases. Daily i.p. injections of 80 mg/kg L-NAME were given to MDA-MB-231 xenograft-bearing mice for 35 days. […] Additionally, tumor-initiating capacity of CSC was assessed with a limiting dilution assay (LDA) by injecting single cells isolated from tumor tissue (5×10^5 or 1×10^5 cells) in the right mammary fat pad. All the animals of vehicle group (n=5) developed tumors whereas treatment with L-NAME yielded 3/5 tumors at 1.5 weeks with 5×10^5 cells.
# The inventor then examined whether iNOS inhibition was able to suppress metastasis to lungs in TNBC xenografts model. The luciferase/GFP-based MDA-MB-231 (MDA-MB-231 L/G) xenograft mouse model mimics the metastatic process to the lungs in patients. In this model of lung metastasis, cells metastasize from the primary tumor to lungs in ˜35 days after implantation. MDA-MB-231 L/G cells were injected in the right mammary fat pad of SCID mice and 80 mg/kg L-NAME was given daily for 35 days.
# C3L5 and C10 = details: cited from earlier work
compound,measurement,setting,value
"[H]/N=C(/NC)NCCC[C@H](N)C(=O)O [L-NMMA, N^G-monomethyl-L-arginine]",PD-L1 expression,MDA-MB-468,increase the PD-L1 expression
same,"limiting dilution assay, tumors","SUM159 xenografts; 7 weeks with 5×10^4 cells, vehicle 12/12",4/12
same,tumor growth,"SUM159 xenografts; L-NMMA 80 mg/kg daily, alone or with docetaxel 20 mg/kg, after 10 days",no differential effect
same,tumor growth,"SUM159 xenografts; L-NMMA daily dose increased to 200 mg/kg, alone or with docetaxel",efficiently blocked
same,tumor cell proliferation by immunohistochemistry (Ki67),"SUM159 xenografts; mouse, in vivo",Higher proliferating rate in vehicle and chemotherapy groups compared to L-NMMA and combination groups
same,"limiting dilution assay, tumors","SUM159 xenografts; week nine with 2×10^4 cells, vehicle 7/12",0/12
same,proliferation,SUM159 [1],anti-proliferative activity
same,proliferation,MDA-MB-231 [2],anti-proliferative activity
same,duration of elevation in BP,after the last injection of L-NMMA,transient and disappeared 24 hrs after the last injection
same,mean systolic pressure,"oral L-NMMA 200 mg/kg, basal levels 120 mmHg",147 mm Hg
same,"limiting dilution assay, tumors","MDA-MB-231 xenografts [3]; 5 weeks with 5×10^4 cells, vehicle 12/12",1/12
same,tumor growth,"MDA-MB-231 xenografts [3]; L-NMMA 200 mg/kg daily, docetaxel 20 mg/kg days 0 and 21, 31 days",reduced tumor growth
same,"limiting dilution assay, tumors","MDA-MB-231 xenografts [3]; after six weeks, vehicle 6/12",3/12
same,primary MS of cells isolated from tumor tissue,MDA-MB-231 xenografts [3]; compared to vehicle and chemotherapy alone groups,less
same,proliferation rate by immunohistochemistry (Ki67),"MDA-MB-231 xenografts [3]; mouse, in vivo",lower proliferation rate
same,secondary MS of cells isolated from tumor tissue,"MDA-MB-231 xenografts [3]; mouse, in vivo",reduce secondary MS
same,L-NMMA plasma levels,"[4]; 200 mg/kg oral gavage, 0.5, 2, 12, 24 hrs",cleared rapidly
same,L-NMMA in tumor tissue,[4]; 24 hrs after completion of treatment,accumulates in the tumor tissue
same,PD-L1 expression,HCC-70,increase the PD-L1 expression
same,conversion of L-arginine to L-citrulline and NO by iNOS,iNOS,inhibits the conversion of L-arginine to L-citrulline and NO by iNOS
same,time to normalization of blood pressure upon ceasing the infusion,[5]; 12 mg/kg,less than 5 min
same,transient increase in systolic blood pressure,[5]; 12 mg/kg,up to 25 mm Hg
same,safety of bolus injections,"[5]; 3, 6, and 12 mg/kg prior to infusion of IL-2, n=3 per cohort",safe
same,blood pressure,[5]; 3 and 6 mg/kg,remained unchanged
same,clinically apparent side effects,[5]; 3 and 6 mg/kg,did not induce clinically apparent side effects
same,"hematologic, liver, or renal abnormalities","[5]; human, in vivo","not associated with any hematologic, liver, or renal abnormalities"
same,tolerability,[6]; in vivo,well tolerated with few AEs other than transient (minutes) reversible hypertension
same,mortality,[6]; myocardial infarction complicated by refractory cardiogenic shock,no effect on mortality
same,migration,SUM159 [7]; micromolar range,not consistent and less effective
same,migration,SUM159 [7]; millimolar range,reduction in migration capacity
same,migration,MDA-MB-231 [8]; micromolar range,not consistent and less effective
same,migration,MDA-MB-231 [8]; millimolar range,reduction in migration capacity
same,total NO production,SUM159 cells,decrease in total NO production
"COC(=O)[C@@H](N)CCCNC(=N)N[N+](=O)[O-] [L-NAME, N^5-[imino(nitroamino)methyl]-L-ornithine methyl ester]",tumor growth and lung metastasis,EMT-6 cells,decrease tumor growth and lung metastasis
same,ex vivo imaging of lungs in presence of luciferin (lung metastasis),MDA-MB-231 xenografts [9]; 80 mg/kg daily for 35 days,higher fluorescence in vehicle group compared to L-NAME group
same,MSFE of primary MS of cells isolated from tumor tissue,MDA-MB-231 xenografts [9]; 80 mg/kg i.p. daily for 35 days,significantly reduced
same,tumor growth,"MDA-MB-231 xenografts [9]; 80 mg/kg i.p. daily for 35 days, p=0.001",significantly reduced tumor growth
same,secondary MSFE of cells isolated from tumor tissue,"MDA-MB-231 xenografts [9]; 80 mg/kg i.p. daily, compared to vehicle group",diminished but not significantly
same,"limiting dilution assay, tumors developed","MDA-MB-231 xenografts [9]; 1.5 weeks with 5×10^5 cells, vehicle all animals (n=5)",3/5
same,"limiting dilution assay, tumors developed",MDA-MB-231 xenografts [9]; 2.5 weeks with 1×10^5 cells,0/5
same,invasive and migrating potential,C3L5 and C10,inhibited the invasive and migrating potential
